Laboratory results published in the supplement of paper PMC9663587.

Key:
THZ1 [1] = compound: T1, CN(C)C/C=C/C(=O)Nc1ccc(C(=O)Nc2cccc(Nc3ncc(Cl)c(-c4c[nH]c5ccccc45)n3)c2)cc1 [THZ1]; test: GR value, 72 h; higher = faster growth (1 = untreated, <0 = killing);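 note: breast cancer and non-malignant breast epithelial lines, nine half-log doses, viable cells counted by Hoechst and LIVE/DEAD dye imaging versus time-zero plates and DMSO controls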
Neratinib/HKI272 [2] = compound: T2, CCOc1cc2ncc(C#N)c(Nc3ccc(OCc4ccccn4)c(Cl)c3)c2cc1NC(=O)/C=C/CN(C)C [Neratinib/HKI272]; test: as above
[3] = compound: CCN1CCN(Cc2ccc(Nc3ncc(F)c(-c4cc(F)c5nc(C)n(C(C)C)c5c4)n3)nc2)CC1; test: increase in dead-cell fraction, 72 h; higher = more death;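 note: breast cancer cell lines in 384-well plates, stained with Hoechst plus LIVE/DEAD far red dye and imaged, cells above an LDR intensity threshold counted dead, Hoechst-negative corpses included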
[4] = compound: CCc1cnn2c(NCc3ccc[n+]([O-])c3)cc(N3CCCC[C@H]3CCO)nc12; test: as above
YKL-5-124 = compound: C=CC(=O)Nc1ccc(C(=O)Nc2[nH]nc3c2CN(C(=O)N[C@H](CN(C)C)c2ccccc2)C3(C)C)cc1 [YKL-5-124]; test: as above
BSJ-03-123 = compound: CC(=O)c1c(C)c2cnc(Nc3ccc(N4CCN(CCOCCOCCOCCNC(=O)COc5cccc6c5C(=O)N(C5CCC(=O)NC5=O)C6=O)CC4)cn3)nc2n(C2CCCC2)c1=O [BSJ-03-123]; test: as above
THZ1 [5] = compound: T1, THZ1; test: as above
Neratinib/HKI272 [6] = compound: T2, Neratinib/HKI272; test: as above
Flavopiridol = compound: CN1CC[C@H](c2c(O)cc(O)c3c(=O)cc(-c4ccccc4Cl)oc23)[C@H](O)C1 [Flavopiridol]; test: as above
[7] = compound: CC(=O)c1c(C)c2cnc(Nc3ccc(N4CCNCC4)cn3)nc2n(C2CCCC2)c1=O; test: as above
LEE011/Ribociclib = compound: CN(C)C(=O)c1cc2cnc(Nc3ccc(N4CCNCC4)cn3)nc2n1C1CCCC1 [LEE011/Ribociclib]; test: as above
THZ531 = compound: CN(C)C/C=C/C(=O)Nc1ccc(C(=O)N2CCC[C@@H](Nc3ncc(Cl)c(-c4c[nH]c5ccccc45)n3)C2)cc1 [THZ531]; test: as above

HTERT_HME1
GR value (THZ1 [1]; 0.0001 µM): 1.1 GR
GR value (THZ1 [1]; 0.0003162 µM): 0.944 GR
GR value (THZ1 [1]; 0.001 µM): 0.928 GR
GR value (THZ1 [1]; 0.003162 µM): 0.72 GR
GR value (THZ1 [1]; 0.01 µM): -0.0367 GR
GR value (THZ1 [1]; 0.03162 µM): -0.275 GR
GR value (THZ1 [1]; 0.1 µM): -0.295 GR
GR value (THZ1 [1]; 0.3162 µM): -0.319 GR
GR value (THZ1 [1]; 1 µM): -0.497 GR
GR value (Neratinib/HKI272 [2]; 0.0003162 µM): 1.07 GR
GR value (Neratinib/HKI272 [2]; 0.001 µM): 1.09 GR
GR value (Neratinib/HKI272 [2]; 0.003162 µM): 1.08 GR
GR value (Neratinib/HKI272 [2]; 0.01 µM): 1.01 GR
GR value (Neratinib/HKI272 [2]; 0.03162 µM): 0.89 GR
GR value (Neratinib/HKI272 [2]; 0.1 µM): 0.57 GR
GR value (Neratinib/HKI272 [2]; 0.3162 µM): 0.349 GR
GR value (Neratinib/HKI272 [2]; 1 µM): 0.269 GR
GR value (Neratinib/HKI272 [2]; 3.162 µM): 0.105 GR
increase in dead-cell fraction ([3]; 0.001 µM): 0.0004
increase in dead-cell fraction ([3]; 0.003162 µM): -0.0056
increase in dead-cell fraction ([3]; 0.01 µM): -0.0023
increase in dead-cell fraction ([3]; 0.03162 µM): 0.002
increase in dead-cell fraction ([3]; 0.1 µM): 0.0067
increase in dead-cell fraction ([3]; 0.3162 µM): 0.0112
increase in dead-cell fraction ([3]; 1 µM): 0.0329
increase in dead-cell fraction ([3]; 3.162 µM): 0.0399
increase in dead-cell fraction ([3]; 10 µM): 0.111
increase in dead-cell fraction ([4]; 0.0001 µM): -0.0004
increase in dead-cell fraction ([4]; 0.0003162 µM): -0.0019
increase in dead-cell fraction ([4]; 0.001 µM): 0.0008
increase in dead-cell fraction ([4]; 0.003162 µM): 0.0059
increase in dead-cell fraction ([4]; 0.01 µM): 0.0263
increase in dead-cell fraction ([4]; 0.03162 µM): 0.571
increase in dead-cell fraction ([4]; 0.1 µM): 0.558
increase in dead-cell fraction ([4]; 0.3162 µM): 0.535
increase in dead-cell fraction ([4]; 1 µM): 0.511
increase in dead-cell fraction (YKL-5-124; 0.001 µM): 0.0989
increase in dead-cell fraction (YKL-5-124; 0.003162 µM): 0.131
increase in dead-cell fraction (YKL-5-124; 0.01 µM): 0.165
increase in dead-cell fraction (YKL-5-124; 0.03162 µM): 0.151
increase in dead-cell fraction (YKL-5-124; 0.1 µM): 0.181
increase in dead-cell fraction (YKL-5-124; 0.3162 µM): 0.224
increase in dead-cell fraction (YKL-5-124; 1 µM): 0.144
increase in dead-cell fraction (YKL-5-124; 3.162 µM): 0.293
increase in dead-cell fraction (YKL-5-124; 10 µM): 0.304
increase in dead-cell fraction (BSJ-03-123; 0.001 µM): 0.0124
increase in dead-cell fraction (BSJ-03-123; 0.003162 µM): -0.0077
increase in dead-cell fraction (BSJ-03-123; 0.01 µM): 0.0297
increase in dead-cell fraction (BSJ-03-123; 0.03162 µM): 0.0411
increase in dead-cell fraction (BSJ-03-123; 0.1 µM): 0.0394
increase in dead-cell fraction (BSJ-03-123; 0.3162 µM): 0.0338
increase in dead-cell fraction (BSJ-03-123; 1 µM): 0.131
increase in dead-cell fraction (BSJ-03-123; 3.162 µM): 0.119
increase in dead-cell fraction (BSJ-03-123; 10 µM): 0.363
increase in dead-cell fraction (THZ1 [5]; 0.0001 µM): -0.0026
increase in dead-cell fraction (THZ1 [5]; 0.0003162 µM): 0.0021
increase in dead-cell fraction (THZ1 [5]; 0.001 µM): 0.0031
increase in dead-cell fraction (THZ1 [5]; 0.003162 µM): 0.0375
increase in dead-cell fraction (THZ1 [5]; 0.01 µM): 0.292
increase in dead-cell fraction (THZ1 [5]; 0.03162 µM): 0.545
increase in dead-cell fraction (THZ1 [5]; 0.1 µM): 0.528
increase in dead-cell fraction (THZ1 [5]; 0.3162 µM): 0.548
increase in dead-cell fraction (THZ1 [5]; 1 µM): 0.71
increase in dead-cell fraction (Neratinib/HKI272 [6]; 0.0003162 µM): -0.0015
increase in dead-cell fraction (Neratinib/HKI272 [6]; 0.001 µM): 0.0018
increase in dead-cell fraction (Neratinib/HKI272 [6]; 0.003162 µM): 0.0002
increase in dead-cell fraction (Neratinib/HKI272 [6]; 0.01 µM): -0.0031
increase in dead-cell fraction (Neratinib/HKI272 [6]; 0.03162 µM): -0.0026
increase in dead-cell fraction (Neratinib/HKI272 [6]; 0.1 µM): 0.0016
increase in dead-cell fraction (Neratinib/HKI272 [6]; 0.3162 µM): 0.0161
increase in dead-cell fraction (Neratinib/HKI272 [6]; 1 µM): 0.0278
increase in dead-cell fraction (Neratinib/HKI272 [6]; 3.162 µM): 0.106
increase in dead-cell fraction (Flavopiridol; 0.0001 µM): -0.0184
increase in dead-cell fraction (Flavopiridol; 0.0003162 µM): -0.0042
increase in dead-cell fraction (Flavopiridol; 0.001 µM): 0.0033
increase in dead-cell fraction (Flavopiridol; 0.003162 µM): 0.0052
increase in dead-cell fraction (Flavopiridol; 0.01 µM): 0.0001
increase in dead-cell fraction (Flavopiridol; 0.03162 µM): 0.007
increase in dead-cell fraction (Flavopiridol; 0.1 µM): 0.051
increase in dead-cell fraction (Flavopiridol; 0.3162 µM): 0.183
increase in dead-cell fraction (Flavopiridol; 1 µM): 0.577
increase in dead-cell fraction ([7]; 0.0003162 µM): -0.0026
increase in dead-cell fraction ([7]; 0.001 µM): 0.0007
increase in dead-cell fraction ([7]; 0.003162 µM): -0.0013
increase in dead-cell fraction ([7]; 0.01 µM): -0.0019
increase in dead-cell fraction ([7]; 0.03162 µM): 0.0014
increase in dead-cell fraction ([7]; 0.1 µM): 0.0147
increase in dead-cell fraction ([7]; 0.3162 µM): 0.0168
increase in dead-cell fraction ([7]; 1 µM): 0.0267
increase in dead-cell fraction ([7]; 3.162 µM): 0.0446
increase in dead-cell fraction (LEE011/Ribociclib; 0.001 µM): 0.0038
increase in dead-cell fraction (LEE011/Ribociclib; 0.003162 µM): 0.0127
increase in dead-cell fraction (LEE011/Ribociclib; 0.01 µM): 0.0406
increase in dead-cell fraction (LEE011/Ribociclib; 0.03162 µM): 0.0372
increase in dead-cell fraction (LEE011/Ribociclib; 0.1 µM): 0.0514
increase in dead-cell fraction (LEE011/Ribociclib; 0.3162 µM): 0.0715
increase in dead-cell fraction (LEE011/Ribociclib; 1 µM): 0.0391
increase in dead-cell fraction (LEE011/Ribociclib; 3.162 µM): 0.0932
increase in dead-cell fraction (LEE011/Ribociclib; 10 µM): 0.132
increase in dead-cell fraction (THZ531; 0.0001 µM): -0.0002
increase in dead-cell fraction (THZ531; 0.0003162 µM): -0.0145
increase in dead-cell fraction (THZ531; 0.001 µM): 0.0054
increase in dead-cell fraction (THZ531; 0.003162 µM): -0.0171
increase in dead-cell fraction (THZ531; 0.01 µM): -0.0178
increase in dead-cell fraction (THZ531; 0.03162 µM): 0.0065
increase in dead-cell fraction (THZ531; 0.1 µM): 0.0042
increase in dead-cell fraction (THZ531; 0.3162 µM): 0.175
increase in dead-cell fraction (THZ531; 1 µM): 0.386
